Measured values from US10501516B2, “Peptide compound” (TAKEDA PHARMACEUTICAL COMPANY LIMITED, priority 2016, dated 2019).
Square brackets hold non-standard residues; d marks the D form. Side chains are listed from the residue outwards. Peptide text beside a SMILES is read from it. * marks the point of attachment. C18 diacid = O=C(O)CCCCCCCCCCCCCCCCC(=O)*; NMeY = CN[C@@H](Cc1ccc(O)cc1)C(=O)O; Palmitoyl = CCCCCCCCCCCCCCCC(=O)*; αMeF = C[C@](N)(Cc1ccccc1)C(=O)O; Iva = CC[C@](C)(N)C(=O)O; Aib = CC(C)(N)C(=O)O

What was measured:
[1] = molecular target: T1, human GIPR (Homo sapiens, UniProt P48546); experiment: Reporter assay of human GIPR gene (agonist activity, intracellular cAMP as index); type: cell-based; conditions: Cre-luc reporter, hGIPR/CHO-K1 cells, 4 hours
T1 construct: expressed in transfected cells; host or cells: CHO-K1 Cre-luc reporter cells (hGIPR/CHO-K1, also called hGIPR/CRE-LUC/CHO-K1)
T1 sequence (P48546 22-466): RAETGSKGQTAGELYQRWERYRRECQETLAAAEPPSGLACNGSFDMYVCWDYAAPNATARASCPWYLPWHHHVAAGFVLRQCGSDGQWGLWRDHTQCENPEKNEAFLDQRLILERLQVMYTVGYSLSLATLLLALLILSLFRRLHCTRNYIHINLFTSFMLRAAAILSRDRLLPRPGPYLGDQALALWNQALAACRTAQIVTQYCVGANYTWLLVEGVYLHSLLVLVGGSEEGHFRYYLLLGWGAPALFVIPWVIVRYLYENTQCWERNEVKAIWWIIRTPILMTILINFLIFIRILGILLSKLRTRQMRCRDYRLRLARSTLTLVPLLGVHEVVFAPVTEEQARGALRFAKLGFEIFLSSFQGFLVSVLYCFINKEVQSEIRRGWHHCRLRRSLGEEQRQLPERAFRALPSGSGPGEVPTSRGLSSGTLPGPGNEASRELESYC
Text: (§1) Evaluation of Agonist Activity Against Human NPY2R, Human GIPR, and Human GLP-1R Using Change in Intracellular cAMP Concentration as Index
The human GIPR gene having a sequence identical to the sequence of GenBank Accession No. U39231 was cloned into pMSRα-neo vector to prepare hGIPR/pMSRα-neo. This vector was introduced to the Cre-luc reporter cells obtained in (1) to obtain transformants. Next, a cell line induced to express luciferase, i.e., hGIPR/CHO-K1 cells, were selected from the obtained transformants by the addition of GIP.
The hGIPR/CRE-LUC/CHO-K1 cells or the hGLP-1R/Crel cells were inoculated at a cell density of 25 μL/well (5,000 cells/well) to a 384-well white plate (Corning, 3570), and cultured overnight in Ham F12 medium containing 10% fetal bovine serum, 100 U/mL penicillin and 100 μg/mL streptomycin in a CO2 incubator of 37° C. On the next day, a medium containing a test compound was added at a concentration of 5 μL/well to the cells, and the resultant cells were incubated for 4 hours in a CO2 incubator of 37° C. to give the final concentration of 1 μM. SteadyGlo (Promega) was added thereto at a concentration of 30 μL/well, and the mixture was shaken with light shielded. After 30 minutes, the luciferase activity was measured using a plate reader Envision (PerkinElmer). For the GIPR agonist activity, the luciferase activity in the presence of 10 μM GIP was defined as 100%, and the luciferase activity from the addition of DMSO instead of the test compound was defined as 0%. The GIPR agonist activity was calculated with a rise in intracellular cAMP concentration as an index.

[2] = molecular target: T2, human NPY2R (Homo sapiens, UniProt P49146); experiment: Reporter assay of human NPY2R gene (agonist activity, decrease in intracellular cAMP as index); type: cell-based; conditions: Cre-luc reporter, hNPY2R CHO-K1 cells, forskolin 1.2 μM, 4 hours; read-out: Agonist activity (EC50) hY2R
T2 construct: expressed in transfected cells; host or cells: CHO-K1 Cre-luc reporter cells (pAKKO1114/hNPY2R#481 No. 88 cells)
T2 sequence (P49146 1-381): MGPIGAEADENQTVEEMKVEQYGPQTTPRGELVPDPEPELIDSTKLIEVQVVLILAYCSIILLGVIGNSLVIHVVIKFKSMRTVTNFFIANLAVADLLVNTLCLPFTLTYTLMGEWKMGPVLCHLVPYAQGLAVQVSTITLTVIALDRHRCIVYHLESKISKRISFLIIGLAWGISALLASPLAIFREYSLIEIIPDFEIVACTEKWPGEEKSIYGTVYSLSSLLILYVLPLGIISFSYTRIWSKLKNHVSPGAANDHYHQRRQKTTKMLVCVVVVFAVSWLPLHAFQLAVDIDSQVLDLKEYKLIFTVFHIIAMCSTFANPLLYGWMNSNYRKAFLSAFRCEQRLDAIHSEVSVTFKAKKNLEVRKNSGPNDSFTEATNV
Text: as §1
The human NPY2R gene having a sequence identical to the sequence of GenBank Accession No. AC104407 was cloned into pAKKO1114 vector to prepare hNPY2R/pAKKO1114. Next, pGL4.29 (Promega) was introduced to CHO-K1 cells, which were then screened with hygromycin to construct Cre-luc reporter cells. These cells were cotransfected with hNPY2R/pAKKO1114 and pcDNA3.1 (Life Technologies Corp.), and the cells were screened with geneticin. Next, a cell line induced to express luciferase, i.e., pAKKO1114/hNPY2R#481 No. 88 cells, were selected from the obtained transformants by the addition of human PYY (3-36).
The pAKKO1114/hNPY2R#481 No. 88 cells were inoculated at a cell density of 25 μL/well (5,000 cells/well) to a 384-well white plate (Corning, 3570), and cultured overnight in Ham F12 medium containing 10% fetal bovine serum, 100 U/mL penicillin and 100 μg/mL streptomycin in a CO2 incubator of 37° C. On the next day, the medium was removed, and an assay medium (Ham F12 medium containing 0.1% BSA, 100 U/mL penicillin and 100 μg/mL streptomycin) containing forskolin (final concentration: 1.2 μM) was added at a concentration of 25 μL/well to the cells. Next, an assay medium containing a test compound was added at a concentration of 5 μL/well to the cells, and the resultant cells were incubated for 4 hours in a CO2 incubator of 37° C. to give the final concentration of 1 μM. SteadyGlo (Promega) was added thereto at a concentration of 30 μL/well, and the mixture was left standing for 20 minutes with light shielded. The luciferase activity was measured using a plate reader Envision (PerkinElmer). The luciferase activity from the addition of DMSO was defined as 100%, and the luciferase activity from the addition of 1 μM human PYY(3-36) instead of the test compound was defined as 0%. The NPY2R agonist activity was calculated with a decrease in intracellular cAMP concentration as an index.

[3] = test system: male C57BL/6J mouse; experiment: Evaluation of feeding suppressive action in mice; type: in vivo; conditions: 30 nmol/kg s.c. once a day for 3 days; 3-days cumulative food consumption vs solvent control
Procedure, shortened: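 Male C57BL/6J mice, 8-9 weeks, ad libitum fed, given compound (30 or 100 nmol/2 mL in 10% DMSO saline) s.c. at 2 mL/kg once daily for 3 days. Cumulative 3-day food consumption measured by weighing; suppression rate (%) calculated relative to vehicle controls.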

EC50 [1]	EC50 [2]	Compound	Rate of feeding suppression (%) [3]
0.068 nM	0.1 nM	CCCCCCCCCCCCCCCC(=O)NCC(=O)NCC(=O)NCC(=O)NCC(=O)NCCCC[C@H](NC(=O)[C@H](CC(=O)O)NC(=O)[C@H](CO)NC(=O)[C@@H](NC(=O)[C@](C)(Cc1ccccc1)NC(=O)[C@@H](NC(=O)CNC(=O)[C@H](CCC(=O)O)NC(=O)C(C)(C)NC(=O)[C@@H](N)Cc1ccc(O)cc1)[C@@H](C)O)[C@@H](C)O)C(=O)NC(C)(C)C(=O)N[C@H](C(=O)NC(C)(C)C(=O)N[C@@H](CC(C)C)C(=O)N[C@@H](CC(=O)O)C(=O)N[C@@H](CCCCN)C(=O)N[C@@H](CCC(N)=O)C(=O)N[C@@H](CCCNC(=N)N)C(=O)N[C@@H](CCC(N)=O)C(=O)N[C@@](C)(CC)C(=O)N[C@@H](CCC(=O)O)C(=O)N[C@@H](Cc1ccccc1)C(=O)N[C@H](C(=O)N[C@@H](CCCNC(=N)N)C(=O)N[C@@H](Cc1c[nH]cn1)C(=O)N[C@@H](CC(C)C)C(=O)N[C@@H](CC(C)C)C(=O)N[C@@H](CC(N)=O)C(=O)N[C@@H](CCCCN)C(=O)NC(C)(C)C(=O)N[C@H](C(=O)N[C@@H](CCCNC(=N)N)C(=O)N[C@@H](CCC(N)=O)C(=O)N[C@@H](CCCNC(=N)N)C(=O)N[C@@H](Cc1ccc(O)cc1)C(N)=O)[C@@H](C)O)C(C)C)[C@@H](C)CC [Example 7] (H-Y[Aib]EGT[αMeF]TSDK([Gly-Gly-Gly-Gly-Palmitoyl])[Aib]I[Aib]LDKQRQ[Iva]EFVRHLLNK[Aib]TRQRY-NH2)	−37.6%
0.068 nM	0.1 nM	CCCCCCCCCCCCCCCC(=O)NCC(=O)NCC(=O)NCC(=O)NCC(=O)NCCCC[C@H](NC(=O)[C@H](CC(=O)O)NC(=O)[C@H](CO)NC(=O)[C@@H](NC(=O)[C@](C)(Cc1ccccc1)NC(=O)[C@@H](NC(=O)CNC(=O)[C@H](CCC(=O)O)NC(=O)C(C)(C)NC(=O)[C@H](Cc1ccc(O)cc1)NC)[C@@H](C)O)[C@@H](C)O)C(=O)NC(C)(C)C(=O)N[C@H](C(=O)NC(C)(C)C(=O)N[C@@H](CC(C)C)C(=O)N[C@@H](CC(=O)O)C(=O)N[C@@H](CCCCN)C(=O)N[C@@H](CCC(N)=O)C(=O)N[C@@H](CCCNC(=N)N)C(=O)N[C@@H](CCC(N)=O)C(=O)N[C@@](C)(CC)C(=O)N[C@@H](CCC(=O)O)C(=O)N[C@@H](Cc1ccccc1)C(=O)N[C@H](C(=O)N[C@@H](CCCNC(=N)N)C(=O)N[C@@H](Cc1c[nH]cn1)C(=O)N[C@@H](CC(C)C)C(=O)N[C@@H](CC(C)C)C(=O)N[C@@H](CC(N)=O)C(=O)N[C@@H](CCCCN)C(=O)NC(C)(C)C(=O)N[C@H](C(=O)N[C@@H](CCCNC(=N)N)C(=O)N[C@@H](CCC(N)=O)C(=O)N[C@@H](CCCNC(=N)N)C(=O)N[C@@H](Cc1ccc(O)cc1)C(N)=O)[C@@H](C)O)C(C)C)[C@@H](C)CC [Example 9] (H-[NMeY][Aib]EGT[αMeF]TSDK([Gly-Gly-Gly-Gly-Palmitoyl])[Aib]I[Aib]LDKQRQ[Iva]EFVRHLLNK[Aib]TRQRY-NH2)	–
0.074 nM	0.1 nM	CCCCCCCCCCCCCCCC(=O)NCC(=O)NCC(=O)NCC(=O)NCC(=O)NCCCC[C@H](NC(=O)[C@H](CC(=O)O)NC(=O)[C@H](CO)NC(=O)[C@@H](NC(=O)[C@](C)(Cc1ccccc1)NC(=O)[C@@H](NC(=O)CNC(=O)[C@H](CCC(=O)O)NC(=O)C(C)(C)NC(=O)[C@H](Cc1ccc(O)cc1)NC)[C@@H](C)O)[C@@H](C)O)C(=O)N[C@@H](C)C(=O)N[C@H](C(=O)NC(C)(C)C(=O)N[C@@H](CC(C)C)C(=O)N[C@@H](CC(=O)O)C(=O)N[C@@H](CCCCN)C(=O)N[C@@H](CCC(N)=O)C(=O)N[C@@H](CCCNC(=N)N)C(=O)N[C@@H](CCC(N)=O)C(=O)N[C@@](C)(CC)C(=O)N[C@@H](CCC(=O)O)C(=O)N[C@@H](Cc1ccccc1)C(=O)N[C@H](C(=O)N[C@@H](CCCNC(=N)N)C(=O)N[C@@H](Cc1c[nH]cn1)C(=O)N[C@@H](CC(C)C)C(=O)N[C@@H](CC(C)C)C(=O)N[C@@H](CC(N)=O)C(=O)N[C@@H](CCCCN)C(=O)NC(C)(C)C(=O)N[C@H](C(=O)N[C@@H](CCCNC(=N)N)C(=O)N[C@@H](CCC(N)=O)C(=O)N[C@@H](CCCNC(=N)N)C(=O)N[C@@H](Cc1ccc(O)cc1)C(N)=O)[C@@H](C)O)C(C)C)[C@@H](C)CC [Example 13] (H-[NMeY][Aib]EGT[αMeF]TSDK([Gly-Gly-Gly-Gly-Palmitoyl])AI[Aib]LDKQRQ[Iva]EFVRHLLNK[Aib]TRQRY-NH2)	−41.0%
0.074 nM	2.4 nM	CC[C@H](C)[C@H](NC(=O)C(C)(C)NC(=O)[C@H](CCCCNC(=O)CNC(=O)CNC(=O)CNC(=O)CNC(=O)CCCCCCCCCCCCCCCCC(=O)O)NC(=O)[C@H](CC(=O)O)NC(=O)[C@H](CO)NC(=O)[C@@H](NC(=O)[C@](C)(Cc1ccccc1)NC(=O)[C@@H](NC(=O)CNC(=O)[C@H](CCC(=O)O)NC(=O)C(C)(C)NC(=O)[C@@H](N)Cc1ccc(O)cc1)[C@@H](C)O)[C@@H](C)O)C(=O)NC(C)(C)C(=O)N[C@@H](CC(C)C)C(=O)N[C@@H](CC(=O)O)C(=O)N[C@@H](CCCCN)C(=O)N[C@@H](CCC(N)=O)C(=O)N[C@@H](C)C(=O)N[C@@H](CCC(N)=O)C(=O)N[C@@](C)(CC)C(=O)N[C@@H](CCC(=O)O)C(=O)N[C@@H](Cc1ccccc1)C(=O)N[C@H](C(=O)N[C@@H](CCCNC(=N)N)C(=O)N[C@@H](Cc1c[nH]cn1)C(=O)N[C@@H](CC(C)C)C(=O)N[C@@H](CC(C)C)C(=O)N[C@@H](CC(N)=O)C(=O)N[C@@H](CCCCN)C(=O)NC(C)(C)C(=O)N[C@H](C(=O)N[C@@H](CCCNC(=N)N)C(=O)N[C@@H](CCC(N)=O)C(=O)N[C@@H](CCCNC(=N)N)C(=O)N[C@@H](Cc1ccc(O)cc1)C(N)=O)[C@@H](C)O)C(C)C [Example 28] (H-Y[Aib]EGT[αMeF]TSDK([Gly-Gly-Gly-Gly-C18 diacid])[Aib]I[Aib]LDKQAQ[Iva]EFVRHLLNK[Aib]TRQRY-NH2)	–
